Earlier results, collected in PMC4469068 (Endocrine-related cancer, 2012).
*1 amine or outer side, *2 acyl side, *3 side chain or, on linkers, in order; H or OH if unused. Where a SMILES comes first, the peptide text is derived from it. Side-chain parts run from the residue outwards. [ ]: non-standard residue; d: D form. The star is where a group is joined. Ethylenediamine = C(CN[*:2])N[*:1]; Hyp = O=C(O)[C@@H]1C[C@@H](O)CN1; Phg = N[C@H](C(=O)O)c1ccccc1; CO = O=C([*:1])[*:2]; Bn = c1ccc(C*)cc1

Legend:
[1] = system: sst1
[2] = system: patients with acromegaly; settings: pasireotide 200–600 mcg BID; ref Petersenn et al. 2010
[3] = system: human corticotroph or somatotroph tumor cell lines; settings: in vitro; ref Batista, et al. 2006; Danila, et al. 2001
[4] = system: QTc interval; settings: 1950 mcg twice daily, healthy adults; ref Novartis, 2012
[5] = system: cell lines derived from small intestine or pancreatic neuroendocrine tumors; settings: in vitro; ref Kidd, et al. 2008
[6] = system: sst2
[7] = system: sst5
[8] = system: sst3
[9] = system: patients with octreotide-refractory carcinoid syndrome; settings: pasireotide 300–1200 mcg bid; ref Kvols et al. 2006
[10] = system: advanced carcinoid tumors; settings: vs. 6 months with placebo; ref Rinke, et al. 2009
[11] = system: pancreatic neuroendocrine tumors; settings: ref Yao et al. 2011

NCCCC[C@@H]1NC(=O)[C@@H](Cc2c[nH]c3ccccc23)NC(=O)[C@H](c2ccccc2)NC(=O)[C@@H]2C[C@@H](OC(=O)NCCN)CN2C(=O)[C@H](Cc2ccccc2)NC(=O)[C@H](Cc2ccc(OCc3ccccc3)cc2)NC1=O [pasireotide] (cyclo([Hyp]([CO-Ethylenediamine])[Phg][dW]KY(Bn)F))
binding affinity ([1]; ref Schmid 2008): high binding affinity
binding affinity compared with octreotide ([1]; ref Schmid and Schoeffter 2004): greater binding affinity
hyperglycemia, patients affected [2]: 6.7%
effect on cell proliferation [3]: suppress cell proliferation
effect on QTc [4]: possible QTc prolongation effect
effect on cell proliferation [5]: inhibition of cell proliferation
binding affinity ([6]; ref Schmid 2008): high binding affinity
binding affinity compared with octreotide ([6]; ref Schmid and Schoeffter 2004): comparable affinity
binding affinity ([7]; ref Schmid 2008): high binding affinity
binding affinity compared with octreotide ([7]; ref Schmid and Schoeffter 2004): greater binding affinity
binding affinity ([8]; ref Schmid 2008): high binding affinity
binding affinity compared with octreotide ([8]; ref Schmid and Schoeffter 2004): greater binding affinity
hyperglycemia, patients affected [9]: 27%

octreotide
median time to tumor progression [10]: 14.3 months

CO[C@H]1C[C@@H]2CC[C@@H](C)[C@@](O)(O2)C(=O)C(=O)N2CCCC[C@H]2C(=O)O[C@H]([C@H](C)C[C@@H]2CC[C@@H](OCCO)[C@H](OC)C2)CC(=O)[C@H](C)/C=C(\C)[C@@H](O)[C@@H](OC)C(=O)[C@H](C)C[C@H](C)/C=C/C=C/C=C/1C [everolimus]
rate of tumor regression ([11]; everolimus alone, randomized trial): 64%
hyperglycemia, patients in the everolimus treatment arm ([11]; single agent, any grade): 13%
hyperglycemia categorized as grade 3 or 4 ([11]; single agent): 5%
